From patent US12673918B2, “Small molecule RPN13 inhibitors with antitumor properties” (The Johns Hopkins University, priority 2019, dated 2026)
Where two headings read alike, the source gives them in different places.

Experiments:
[1] = tested on: HeLa; assay: MTT cytotoxicity assay, HeLa; settings: read-out: cytotoxicity IC50 HeLa, Tables 3A/4B/4C
[2] = tested on: SKOV3; assay: MTT cytotoxicity assay, SKOV3
Method: Cell lines and cytotoxicity assays: All cell lines were obtained from the American Type Culture Collection (ATCC) and cultured in the specified medium supplemented with 10% fetal bovine serum, 100 IU/mL penicillin, and 100 μg/mL streptomycin at 37° C. in a humidified 5% CO2/95% air incubator. […] To assess drug cytotoxicity, cells were seeded at 2,500 cells/well (10,000 cells/well for MM lines) in 100 μL medium in 96-well plate and after 24 treated with compounds for 72 h, incubated according to the manufacturer's protocol with the Thiazolyl Blue Tetrazolium Bromide (Sigma, M2128) and A570 measured using a Benchmark Plus microplate spectrophotometer (BIO-RAD). IC50 data was analyzed by Graphpad Prism software.

[3] = tested on: OV2008; assay: MTT cytotoxicity assay, OV2008; settings: read-out: cytotoxicity IC50 OV2008
Method: (§3) Cell lines and cytotoxicity assays: All cell lines were obtained from the American Type Culture Collection (ATCC) and cultured in the specified medium supplemented with 10% fetal bovine serum, 100 IU/mL penicillin, and 100 μg/mL streptomycin at 37° C. in a humidified 5% CO2/95% air incubator. […] To assess drug cytotoxicity, cells were seeded at 2,500 cells/well (10,000 cells/well for MM lines) in 100 μL medium in 96-well plate and after 24 treated with compounds for 72 h, incubated according to the manufacturer's protocol with the Thiazolyl Blue Tetrazolium Bromide (Sigma, M2128) and A570 measured using a Benchmark Plus microplate spectrophotometer (BIO-RAD). IC50 data was analyzed by Graphpad Prism software. In the chirality studies the cells were treated with compounds for 48 h, and the cells were incubated and measured via the preceeding protocols.

[4] = tested on: SSC90; settings: human
[5] = tested on: HeLa; settings: human
[6] = tested on: VU93
[7] = tested on: FaDu; assay: cells; settings: Homo sapiens, read-out: cytotoxicity IC50 FaDu
[8] = tested on: TOV21G; assay: MTT cytotoxicity assay, TOV21G; settings: read-out: cytotoxicity IC50 TOV21G; Tables 3A/4B/4C; MTT assay
[9] = tested on: ID8-vegf; assay: MTT cytotoxicity assay, ID8-vegf; settings: read-out: cytotoxicity IC50 ID8-vegf, Tables 3A/4B/4C
[10] = tested on: OVCAR3; assay: MTT cytotoxicity assay, OVCAR3; settings: read-out: cytotoxicity IC50 OVCAR3; Tables 3A/4B/4C; MTT assay
[11] = tested on: ES2; assay: MTT cytotoxicity assay, ES2; settings: read-out: cytotoxicity IC50 ES2; Tables 3A/4B/4C; MTT assay
[12] = tested on: HCC1395; assay: MTT cytotoxicity assay, HCC1395; settings: Homo sapiens, HCC1395, read-out: cytotoxicity IC50 HCC1395
[13] = tested on: MCF7; assay: MTT cytotoxicity assay, MCF7; settings: read-out: cytotoxicity IC50 MCF7, Tables 3A/4B/4C
[14] = tested on: DLD-BRCA2-Ve; assay: MTT cytotoxicity assay, DLD-BRCA2-Ve; settings: read-out: cytotoxicity IC50 DLD-BRCA2-Ve
Method: as §3

[15] = tested on: DLD1; assay: MTT cytotoxicity assay, DLD1; settings: Homo sapiens, DLD-1, read-out: cytotoxicity IC50 DLD1
Method: as §3

[16] = tested on: BR5-Luc; assay: MTT cytotoxicity assay, BR5-Luc; settings: read-out: cytotoxicity IC50 BR5-Luc, Tables 3A/4B/4C, BRCA2 − VE
[17] = tested on: BR5-FvB1; assay: MTT cytotoxicity assay, BR5-FvB1; settings: Mus musculus, read-out: cytotoxicity IC50 BR5-FvB1
Method: as §3

[18] = MTT cytotoxicity assay, RPE1; settings: human, RPE1 cells
Method: as §3

[19] = tested on: DLD-Seckle; assay: MTT cytotoxicity assay, DLD-Seckle; settings: read-out: cytotoxicity IC50 DLD-Seckle
Method: as §3

[20] = tested on: VU93; assay: MTT cytotoxicity assay, VU93; settings: read-out: cytotoxicity IC50 VU93, Tables 3A/4B/4C
[21] = tested on: C2KmFvB1; assay: MTT cytotoxicity assay, C2KmFvB1; settings: read-out: cytotoxicity IC50 C2KmFvB1, Tables 3A/4B/4C, BRCA2 + Ve
[22] = tested on: RPE1-ATMKO; assay: MTT cytotoxicity assay, RPE1-ATMKO; settings: read-out: cytotoxicity IC50 RPE1-ATMKO
Method: as §3

[23] = tested on: HeLa cells; assay: XTT cytotoxicity assay, HeLa; assay type: cell-based, human
Excerpt: (§1) The impact of substituents of the aromatic ring on the potency of molecules was also examined. The presence of either an electron withdrawing group (EWG) or an electron donating group (EDG) influences the reactivity of a Michael acceptor towards the target protein but can also impact specificity/selectivity.

[24] = tested on: high molecular weight polyubiquitinated proteins; assay: Western blot of polyubiquitinated proteins, ES2 cells; assay type: cell-based, human; settings: 1 μM, 4 hr
Method: FIG. 1C illustrates ES2 cells treated with compounds (1 μM, 4 hr), lysed and the samples probed with ubiquitin or actin-specific antibody by Western blot analysis.
Antibodies, reagents, and Western Blot Analyses: Cell lysate (10-20 μg total protein) prepared in MPER (Pierce) from each sample was subjected to SDS-PAGE, transferred to PVDF membranes and analyzed by Western blot using antibodies specific Bax (#2772, Cell Signaling), ubiquitin (P4D1, sc-8017, Santa Cruz), PARP (#9542, BD Pharmingen), actin (#66009, Protein Tech Group), Tubulin(#66031, Protein Tech Group), ADRM1/Rpn13 (D9Z1U, #12019, Cell Signaling), Lys48-linkled ubiquitin (Apu 2, 05-1307, (Millipore), Annexin V (#559763, BD pharmingen), caspase-3 (51-68655X, BD Pharmingen) at the dilutions recommended by the manufacturers, and for secondary antibodies either peroxidase-linked anti-mouse IgG or anti-rabbit IgG (GE Healthcare UK Ltd) were utilized, HRP conjugated streptavidin (N100, Thermo Fisher) at the recommended dilution (1:5000). MitoTracker Red CMXRos reagent was purchased from ThermoFisher #M7512. The blots were developed using HyGLO chemiluminescent detection reagent (Denville).

[25] = tested on: SKOV3 cells; assay: XTT cytotoxicity assay, SKOV3; assay type: cell-based, human
Excerpt: as §1

[26] = target: RPN13 (Homo sapiens, UniProt Q16186); assay: Competition with RA190B labeling of 42 kDa cellular target in cell lysate; assay type: binding; parameters: endogenous in cells; running text says HeLa) and OV2008 cell lysates; settings: cell lysate pre-incubated with compounds (20 μM), then RA190B; HRP-streptavidin blot
RPN13, sequence (Q16186 whole entry): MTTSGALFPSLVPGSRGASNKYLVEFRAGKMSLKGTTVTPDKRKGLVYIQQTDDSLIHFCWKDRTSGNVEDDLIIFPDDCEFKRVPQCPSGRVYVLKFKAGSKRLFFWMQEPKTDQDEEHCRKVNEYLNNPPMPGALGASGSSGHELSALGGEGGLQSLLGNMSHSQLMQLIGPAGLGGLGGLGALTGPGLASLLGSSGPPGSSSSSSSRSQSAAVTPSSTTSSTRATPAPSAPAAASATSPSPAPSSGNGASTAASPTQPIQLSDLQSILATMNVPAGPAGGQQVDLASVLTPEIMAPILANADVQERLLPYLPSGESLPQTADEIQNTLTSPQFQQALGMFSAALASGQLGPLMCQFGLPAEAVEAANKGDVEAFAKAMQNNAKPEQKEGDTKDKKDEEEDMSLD
Method: (§2) FIG. 1B illustrates precleared ES2 cell lysate incubated with compounds (20 μM) or vehicle (DMSO, 1:100) for 45 min and then with RA190B (5 μM) for 45 min at 4° C. by Western blot analysis. Samples were subjected to SDS-PAGE, transfer to PVDF membrane, and after probing with HRP-streptavidin, binding was detected using chemiluminescence.
as §2, with “2B” for “1B”, “OV2008” for “ES2”, “(10” for “(5”, “binding of” for “after probing with”, “HRP-streptavidin,” for “HRP-streptavidin, binding was”
Biotinylated RA190 (RA190B, FIG. 1A) is utilized as a probe to detect covalent binding to its cellular target(s) in detergent lysates of cancer cell lines (10). […] Here, the ability of compounds (FIG. 1A) to compete with RA190B binding to its 42 kDa cellular target (FIG. 1B) were examined. Compounds, including bortezomib as a negative control, were incubated with HeLa cell lysate and then RA190B added.
Biotin labeling Assay: Clarified cell lysate in MPER buffer was pretreated with streptavidin magna beads for 45 min at 4° C. to deplete non-specific biotinylated proteins in the cell lysate. The beads were separated and 40 μL of the pre-cleared cell lysate was incubated with compounds (20 μM) for 45 min at 4° C., and then treated with RA183B, RA190B, or RA413SB (10 μM) for 45 min at 4° C. Next, the samples were mixed with Laemmli sample buffer (BioRad) and boiled for 5 min. […] (24 V). The membrane was blocked with 5% BSA in PBST for 1 hr at RT and washed for 20 minutes (3× with PBST). Then the membrane was probed with HRP-streptavidin (1:10,000 in PBST) for 1 hr at RT, washed for 30 min (3× with PBST), and developed using HyGLO chemiluminescent detection reagent (Denville) for biotin detection.

[27] = Homo sapiens, SK-OV-3, read-out: cytotoxicity IC50 SKOV3
[28] = Table 1, XTT assay, read-out: IC50 HeLa
[29] = Table 1, XTT assay, read-out: IC50 SKOV3

## CC1NCC(=Cc2ccc([N+](=O)[O-])cc2)C(=O)C1=Cc1ccc([N+](=O)[O-])cc1 (racemic) [RA411]
[1]
  IC50: 16 nM
[2]; read-out: cytotoxicity IC50 SKOV3, Tables 3A/4B/4C, MTT assay
  IC50: 257 nM

## CC1/C(=C\c2ccc([N+](=O)[O-])cc2)C(=O)/C(=C/c2ccc([N+](=O)[O-])cc2)CN1C(=O)[C@@H](N)Cc1ccccc1 (mixture of isomers) [RA413]
[3]
  IC50: 150 nM
[4]
  IC50: 312 nM
[2]; [27]
  IC50: 86 nM
[5]
  IC50: 96 nM
[6]
  IC50: 625 nM
[7]
  IC50: 300 nM
[8]
  IC50: 42 nM
[9]
  IC50: 192 nM

## CC1/C(=C\c2ccc(F)cc2)C(=O)/C(=C/c2ccc(F)cc2)CN1C(=O)[C@@H](N)Cc1ccccc1 (mixture of isomers) [RA462]
[10]
  IC50: 105 nM
[11]
  IC50: 96 nM
[12]
  IC50: 250 nM
[2]; [27]
  IC50: 112 nM
[9]
  IC50: 123 nM
[13]
  IC50: 750 nM

## CC1/C(=C\c2ccccc2F)C(=O)/C(=C/c2ccccc2F)CN1C(=O)[C@@H](N)Cc1ccccc1 (mixture of isomers) [RA467]
[10]
  IC50: 120 nM
[11]
  IC50: 112 nM
[14]
  IC50: 502 nM
[12]
  IC50: 250 nM
[2]; [27]
  IC50: 126 nM
[9]
  IC50: 167 nM
[13]
  IC50: 750 nM
[15]
  IC50: 474 nM

## COc1cccc2c1C(=O)c1c(O)c3c(c(O)c1C2=O)C[C@@](O)(C(=O)CO)C[C@@H]3O[C@H]1C[C@H](N)[C@H](O)[C@H](C)O1 [DOX, Doxorubicin]
[16]
  IC50: 237 nM
[17]
  IC50: < 20 nM

## O=C(c1cc(Cc2n[nH]c(=O)c3ccccc23)ccc1F)N1CCN(C(=O)C2CC2)CC1 [OLA, olaparib, reference compound]
[18]
  IC50: 23200 nM
[16]
  IC50: 500 nM
[19]
  IC50: 1.7 nM
[14]
  IC50: 2.5 nM
[12]
  IC50: 750 nM
[20]
  IC50: 30 nM
[21]
  IC50: 7960 nM
[22]
  IC50: 2.6 nM
[17]
  IC50: 30 nM
[15]
  IC50: 23000 nM

## Cl.NC(Cc1ccccc1)C(=O)N1CC(=CC=Cc2ccccc2)C(=O)C(=CC=Cc2ccccc2)C1 (centres unmarked) [RA181C]
[23]; [28]
  IC50: > 2500 nM
[24]
  accumulation of high molecular weight polyubiquitinated proteins: only minimal accumulation of polyubiquitinated proteins
[25]; [29]
  IC50: > 2500 nM
[26]
  competition with RA190B binding to 42 kDa cellular target: failed to compete binding by RA190B

## Cl.NC(Cc1ccccc1)C(=O)N1CC(=Cc2ccccc2)C(=O)C(=Cc2ccccc2)C1 (centres unmarked) [RA181]
[23]; [28]
  IC50: 63 nM
[24]
  accumulation of high molecular weight polyubiquitinated proteins: rapid accumulation of high molecular weight polyubiquitinated proteins
[25]; [29]
  IC50: 89 nM
[26]
  competition with RA190B binding to 42 kDa cellular target: competed labeling by RA190B to a greater extent

## CC1(C)CN(C(=O)[C@@H](N)Cc2ccccc2)C/C(=C\c2ccc(Cl)c(Cl)c2)C1=O [RA190H]
[23]; Homo sapiens, HeLa, Table 1, XTT assay, read-out: IC50 HeLa
  IC50: 562 nM
[23]; cytotoxicity, Table 1 cell lines (HeLa, SKOV3)
  fold decreased potency compared to RA190: 6 fold
[24]
  accumulation of high molecular weight polyubiquitinated proteins: only weakly caused an accumulation of high molecular weight polyubiquitinated proteins
[26]
  competition with RA190B binding to 42 kDa cellular target: competed labeling by RA190B to a greater extent

## Cl.NC(Cc1ccccc1)C(=O)N1C2CCC1C(=Cc1ccc(Cl)c(Cl)c1)C(=O)C2=Cc1ccc(Cl)c(Cl)c1 (centres unmarked) [RA338]
[23]; Table 2, read-out: IC50 HeLa (bridge compounds)
  IC50: 66 nM
[24]
  accumulation of high molecular weight polyubiquitinated proteins: rapid accumulation of high molecular weight polyubiquitinated proteins
[25]; Table 2, read-out: IC50 SKOV3 (bridge compounds)
  IC50: 81 nM
[26]
  competition with RA190B binding to 42 kDa cellular target: competed labeling by RA190B to a greater extent

## CC[C@]1(O)C[C@H]2CN(CCc3c([nH]c4ccccc34)[C@@](C(=O)OC)(c3cc4c(cc3OC)N(C=O)[C@H]3[C@@](O)(C(=O)OC)[C@H](OC(C)=O)[C@]5(CC)C=CCN6CC[C@]43[C@@H]65)C2)C1 [Vin, Vincristine]
[21]
  IC50: 13.4 nM
